Reference: BindingDB's records for doi:10.1002/cmdc.200500009 (Bayer Healthcare, 2006)

What follows are compounds tested against T1, Endothelin-converting enzyme 1 (Rattus norvegicus, UniProt P42893) (assay: Inhibition Assay).
T1 sequence (P42893 whole entry): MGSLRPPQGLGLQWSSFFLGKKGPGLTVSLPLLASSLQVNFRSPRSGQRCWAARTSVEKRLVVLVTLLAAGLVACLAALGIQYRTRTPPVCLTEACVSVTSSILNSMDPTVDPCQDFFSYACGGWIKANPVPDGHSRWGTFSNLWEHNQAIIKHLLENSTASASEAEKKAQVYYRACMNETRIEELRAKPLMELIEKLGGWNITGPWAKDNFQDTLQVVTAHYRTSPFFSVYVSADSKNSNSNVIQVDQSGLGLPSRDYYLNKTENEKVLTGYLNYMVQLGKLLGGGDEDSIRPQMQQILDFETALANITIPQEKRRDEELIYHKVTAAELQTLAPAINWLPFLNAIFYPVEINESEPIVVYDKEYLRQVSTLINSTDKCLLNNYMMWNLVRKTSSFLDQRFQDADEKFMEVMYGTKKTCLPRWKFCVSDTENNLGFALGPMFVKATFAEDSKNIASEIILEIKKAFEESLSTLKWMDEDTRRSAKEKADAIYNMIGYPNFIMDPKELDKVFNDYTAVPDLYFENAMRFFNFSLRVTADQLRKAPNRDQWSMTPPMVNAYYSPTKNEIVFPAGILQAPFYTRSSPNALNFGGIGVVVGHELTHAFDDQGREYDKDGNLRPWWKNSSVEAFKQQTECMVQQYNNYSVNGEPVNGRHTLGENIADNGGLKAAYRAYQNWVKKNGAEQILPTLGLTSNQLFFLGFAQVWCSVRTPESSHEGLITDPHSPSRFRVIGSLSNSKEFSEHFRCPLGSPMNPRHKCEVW
Excerpt: Inhibition assay using ECE.

First: CC(C)(C)CC(=O)Nc1ccc2c(c1)cc(C(=O)Nc1ccn[nH]1)n2Cc1ccccc1F
Second: CC(C)(C)CC(=O)Nc1ccc2c(c1)cc(C(=O)Nc1ccc(Cl)nc1)n2Cc1ccccc1F [ECE Inhibitor, 9]
The IC50 of the first is higher: > 10000 nM for the first, 220 nM for the second.

`CC(C)(C)CC(=O)Nc1ccc2c(c1)cc(C(=O)Nc1cccc(C(=O)Nc3ccc(S(N)(=O)=O)cc3)c1)n2Cc1ccccc1F` and `CC(C)(C)CC(=O)Nc1ccc2c(c1)cc(C(=O)Nc1cncc(C(=O)Nc3ccc(S(N)(=O)=O)cc3)c1)n2Cc1ccccc1F` [ECE Inhibitor, 14] are the same in IC50: 10 nM for the first, 10 nM for the second.

First: CC(C)(C)CC(=O)Nc1ccc2c(c1)cc(C(=O)Nc1ccccc1)n2Cc1ccccc1F [ECE Inhibitor, 6]
Second: CC(C)(C)CC(=O)Nc1ccc2c(c1)cc(C(=O)Nc1nc3ccccc3[nH]1)n2Cc1ccccc1F [ECE Inhibitor, 8]
The IC50 of the first is lower: 1800 nM for the first, > 10000 nM for the second. The first is the more potent here.

First: CC(C)(C)CC(=O)Nc1ccc2c(c1)cc(C(=O)Nc1ccc(S(=O)(=O)Nc3ccccn3)cc1)n2Cc1ccccc1F [ECE Inhibitor, 10]
Second: CC(C)(C)CC(=O)Nc1ccc2c(c1)cc(C(=O)Nc1cncc(C(=O)O)c1)n2Cc1ccccc1F [ECE Inhibitor, 13]
The IC50 of the first is 2.3-fold higher: 410 nM for the first, 180 nM for the second.
